Measurements taken from patent publication US9512459B2 (priority 2011, dated 2016).

Assays:
[1] = target: Sclerotinia sclerotiorum glucose dehydrogenase (FAD-GDH) Ssc-n1, wild type, SEQ ID NO: 1 (16 N-terminal residues deleted, Ser17 substituted by Met) (Sclerotinia sclerotiorum, UniProt A7F9L2); test: GDH activity vs glucose, saturation curve (Ssc-n1); type: biochemical; settings: crude enzyme, glucose 1-40 mM, pH 6.5, DCIP/PMS
Description: (§1) The transformant BL21 (DE3) expressing each mutated enzyme was precultured. The transformant was inoculated in an amount of 1% with respect to 60 ml of a medium A using a 300-ml baffled flask and shake-cultured under conditions involving 20° C., 28 hours, and 125 rpm. After collection of 50 ml of the medium, the bacterial cells were suspended by the addition of BugBuster (registered trademark) protein extraction reagent (Novagen/Merck KGaA) at a ratio of 5 ml per g of wet cells and incubated at room temperature for 15 minutes with gentle shaking. Insoluble fractions were removed by centrifugation (15 Krpm, 4° C., 20 minutes). Then, the obtained supernatant was dialyzed overnight at 4° C. against a 20 mM potassium phosphate buffer solution (pH 6.5). After the completion of the dialysis, the dialysate was centrifuged, and the supernatant was used as a crude enzyme preparation. Insoluble fractions were suspended in a 20 mM potassium phosphate buffer solution (pH 6.5) at a ratio of 1 ml per 2 ml of the suspension containing the insoluble fractions.
A small-scale expression system was used for some multiple-mutated enzymes. The transformant BL21 (DE3) expressing each mutated enzyme was precultured, and the transformant was inoculated in an amount of 1 vol % with respect to 3 ml of a medium A. The bacterial cells were shake-cultured at 37° C. for 4 hours and then shake-cultured at 20° C. for 20 hours. After the culture, 2 ml of the medium was collected, then suspended by the addition of 400 μl of BugBuster (registered trademark), and then shaken at room temperature for 15 minutes. Then, the suspension was centrifuged (15000 rpm, 4° C., 20 minutes), and the obtained supernatant was used as a crude enzyme preparation.
(§2) The GDH activity was measured in a DCIP (0.3 mM)/PMS (0.6 mM) system using a 20 mM potassium phosphate buffer solution (pH 6.5) as a buffer solution and glucose (Glc; 1, 2, 4, 10, 20, and 40 mM) and xylose (Xyl; 4 and 40 mM) as substrates.
(§3) The numeric values in the tables represent a mean of several data about specific activity (U/mg) and productivity (U/L) obtained under the same conditions with 40 mM glucose as a substrate. The obtained crude enzyme preparation was used to observe the correlation between the concentration of the substrate (glucose; 1, 2, 4, 10, 20, and 40 mM) and the activity. The obtained Michaelis-Menten constant (Km value) and apparent maximum activity (Vmax) were determined from a saturation curve determined therefrom.

[2] = target: Sclerotinia sclerotiorum glucose dehydrogenase (FAD-GDH) Ssc-n1 variant N191K, SEQ ID NO: 1 (Sclerotinia sclerotiorum, UniProt A7F9L2, N191K); settings: 60 ml culture, crude enzyme; glucose 1-40 mM, pH 6.5, DCIP/PMS
Description: as §1, §2, §3

[3] = target: Sclerotinia sclerotiorum glucose dehydrogenase (FAD-GDH) Ssc-n1 variant N191S, SEQ ID NO: 1 (Sclerotinia sclerotiorum, UniProt A7F9L2, N191S); settings: 60 ml culture, crude enzyme; glucose 1-40 mM, pH 6.5, DCIP/PMS
Description: as §1, §2, §3

[4] = target: Sclerotinia sclerotiorum glucose dehydrogenase (FAD-GDH) Ssc-n1 variant S529G, SEQ ID NO: 1 (Sclerotinia sclerotiorum, UniProt A7F9L2, S529G); settings: 60 ml culture, crude enzyme; glucose 1-40 mM, pH 6.5, DCIP/PMS
Description: as §1, §2, §3

[5] = target: Sclerotinia sclerotiorum glucose dehydrogenase (FAD-GDH) Ssc-n2 variant N191E/S529G, SEQ ID NO: 1 (Sclerotinia sclerotiorum, UniProt A7F9L2, N191E/S529G); settings: 60 ml culture, crude enzyme; glucose 1-40 mM, pH 6.5, DCIP/PMS
Description: as §1, §2, §3

[6] = target: Sclerotinia sclerotiorum glucose dehydrogenase (FAD-GDH) Ssc-n2 variant N191S/S529G, SEQ ID NO: 1 (Sclerotinia sclerotiorum, UniProt A7F9L2, N191S/S529G); settings: 60 ml culture, crude enzyme; glucose 1-40 mM, pH 6.5, DCIP/PMS
Description: as §1, §2, §3

[7] = target: Sclerotinia sclerotiorum glucose dehydrogenase (FAD-GDH) Ssc-n3 variant N191K/S529G, SEQ ID NO: 1 (Sclerotinia sclerotiorum, UniProt A7F9L2, N191K/S529G); settings: 60 ml culture, crude enzyme; glucose 1-40 mM, pH 6.5, DCIP/PMS
Description: as §1, §2, §3

[8] = target: Sclerotinia sclerotiorum glucose dehydrogenase (FAD-GDH) Ssc-n4 variant N191K/S529G, SEQ ID NO: 1 (Sclerotinia sclerotiorum, UniProt A7F9L2, N191K/S529G); settings: 60 ml culture, crude enzyme; glucose 1-40 mM, pH 6.5, DCIP/PMS
Description: as §1, §2, §3

[9] = target: T1, Aspergillus niger glucose dehydrogenase (FAD-GDH) Ang-n1, wild type, SEQ ID NO: 2 (20 N-terminal residues deleted, Ala21 substituted by Met) (Aspergillus niger, UniProt A2QWL1); test: GDH activity vs glucose, saturation curve (Ang-n1); type: biochemical; settings: 60 ml culture, crude enzyme; glucose 1-40 mM, pH 6.5, DCIP/PMS
T1 construct: pET30c, E. coli BL21(DE3), crude extract
T1 sequence (A2QWL1 with tags, fused parts or gaps): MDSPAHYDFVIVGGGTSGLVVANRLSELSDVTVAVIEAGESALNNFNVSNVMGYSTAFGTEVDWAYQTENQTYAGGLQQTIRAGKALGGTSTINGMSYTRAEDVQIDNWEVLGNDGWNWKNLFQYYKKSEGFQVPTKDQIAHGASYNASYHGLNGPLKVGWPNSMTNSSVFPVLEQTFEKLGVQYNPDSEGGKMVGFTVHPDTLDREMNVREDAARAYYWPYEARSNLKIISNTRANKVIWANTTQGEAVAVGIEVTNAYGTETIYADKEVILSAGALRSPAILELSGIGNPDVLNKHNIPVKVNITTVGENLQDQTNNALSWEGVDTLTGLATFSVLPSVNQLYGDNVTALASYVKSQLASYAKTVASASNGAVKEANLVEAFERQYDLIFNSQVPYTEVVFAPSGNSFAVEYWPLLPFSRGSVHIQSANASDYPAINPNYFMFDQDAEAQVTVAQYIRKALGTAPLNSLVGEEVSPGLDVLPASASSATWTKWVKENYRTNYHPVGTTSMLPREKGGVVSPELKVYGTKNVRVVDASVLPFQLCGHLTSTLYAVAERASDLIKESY
Description: as §1, with “After the completion of the dialysis, the dialysate was centrifuged, and the supernatant was used as a crude enzyme preparation. Insoluble fractions were suspended in a 20 mM potassium phosphate buffer solution (pH 6.5) at a ratio of 1 ml per 2 ml of the suspension containing the insoluble fractions.” left out
as §2
as §3, with “The obtained crude enzyme preparation was used to observe the correlation between the concentration of the substrate (glucose; 1, 2, 4, 10, 20, and 40 mM) and the activity.” left out

In the case of `OC[C@H]1OC(O)[C@H](O)[C@@H](O)[C@@H]1O` (stereo partly drawn) [glucose], the Km ([1]; 3 ml culture) was 14.3 mM, the Vmax ([1]; 3 ml culture) was 2.2 U/mg protein and the Km ([1]; 60 ml culture) was 16.6 mM. For the same compound, the Vmax ([1]; 60 ml culture) was 0.7 U/mg protein, the Vmax [2] was 1.6 U/mg protein and the Vmax [3] was 3.7 U/mg protein. The Vmax [4] was 3.6 U/mg protein, the Vmax [5] was 20.2 U/mg protein and the Vmax [6] was 19.4 U/mg protein. It also gave a Vmax [7] of 6.9 U/mg protein, a Vmax [8] of 9.2 U/mg protein and a Vmax [9] of 0.2 U/mg protein.
